From ChEMBL document CHEMBL1681651, “A broad spectrum anticancer nucleoside with selective toxicity against human colon cells in vitro” (2011)

Columns and labels:
Assay type in all cases: functional
IGROV-1 = experiment: Growth inhibition of human IGROV1 cells assessed as cell growth at 0.1 uM after 48 hrs by SRB assay; settings: IGROV-1, 48 h, read-out: Activity
OVCAR-3 [1] = experiment: Growth inhibition of human OVCAR3 cells assessed as cell growth at 10 uM after 48 hrs by SRB assay; settings: OVCAR-3, 48 h, read-out: Activity
SF-539 = experiment: Growth inhibition of human SF539 cells after 48 hrs by […] growth inhibition assay; settings: SF-539, 48 h
NCI-H226 = experiment: Growth inhibition of human NCI-H226 cells assessed as cell growth at 100 uM after 48 hrs by SRB assay; settings: NCI-H226, 48 h, read-out: Activity
HCT-116 = experiment: Growth inhibition of human HCT116 cells assessed as cell growth at 0.1 uM after 48 hrs by SRB assay; settings: HCT-116, 48 h, read-out: Activity
SF-268 [2] = experiment: Growth inhibition of human SF268 cells assessed as cell growth at 10 uM after 48 hrs by SRB assay; settings: SF-268, 48 h, read-out: Activity
OVCAR-5 [3] = experiment: Growth inhibition of human OVCAR5 cells after 48 hrs by […] growth inhibition assay; settings: OVCAR-5, 48 h
OVCAR-4 = experiment: Growth inhibition of human OVCAR4 cells after 48 hrs by […] growth inhibition assay; settings: OVCAR-4, 48 h
HT-29 = experiment: Growth inhibition of human HT-29 cells after 48 hrs by […] growth inhibition assay; settings: HT-29, 48 h
NCI-H522 [4] = experiment: Growth inhibition of human NCI-H522 cells assessed as cell growth at 100 uM after 48 hrs by SRB assay; settings: NCI-H522, 48 h, read-out: Activity
UO-31 = experiment: Growth inhibition of human UO31 cells assessed as cell growth at 10 uM after 48 hrs by SRB assay; settings: UO-31, 48 h, read-out: Activity
HOP-62 [5] = experiment: Growth inhibition of human HOP62 cells assessed as cell growth at 1 mM after 48 hrs by SRB assay; settings: HOP-62, 48 h, read-out: Activity
OVCAR-5 [6] = experiment: Growth inhibition of human OVCAR5 cells assessed as cell growth at 1 uM after 48 hrs by SRB assay; settings: OVCAR-5, 48 h, read-out: Activity
NCI-H322M [7] = experiment: Growth inhibition of human NCI-H322M cells assessed as cell growth at 0.1 uM after 48 hrs by SRB assay; settings: read-out: Activity
Malme-3M = experiment: Growth inhibition of human MALME-3M cells assessed as cell growth at 1 uM after 48 hrs by SRB assay; settings: read-out: Activity
SF-268 [8] = experiment: Growth inhibition of human SF268 cells assessed as cell growth at 1 uM after 48 hrs by SRB assay; settings: SF-268, 48 h, read-out: Activity
MDA-MB-231 = experiment: Growth inhibition of human MDA-MB-231 cells assessed as cell growth at 10 uM after 48 hrs by SRB assay; settings: MDA-MB-231, 48 h, read-out: Activity
T47D = experiment: Growth inhibition of human T47D cells assessed as cell growth at 1 mM after 48 hrs by SRB assay; settings: read-out: Activity
ACHN = experiment: Growth inhibition of human ACHN cells assessed as cell growth at 100 uM after 48 hrs by SRB assay; settings: read-out: Activity
SF-268 [9] = experiment: Growth inhibition of human SF268 cells assessed as cell growth at 0.1 uM after 48 hrs by SRB assay; settings: SF-268, 48 h, read-out: Activity
[10] = Growth inhibition of human […] cells assessed as cell growth at 100 uM after 48 hrs by SRB assay; settings: read-out: Activity
M14 = experiment: Growth inhibition of human M14 cells assessed as cell growth at 0.1 uM after 48 hrs by SRB assay; settings: M14, 48 h, read-out: Activity
NCI-H522 [11] = experiment: Growth inhibition of human NCI-H522 cells assessed as cell growth at 1 mM after 48 hrs by SRB assay; settings: NCI-H522, 48 h, read-out: Activity
CAKI-1 = experiment: Growth inhibition of human Caki1 cells assessed as cell growth at 10 uM after 48 hrs by SRB assay; settings: CAKI-1, 48 h, read-out: Activity
OVCAR-3 [12] = experiment: Growth inhibition of human OVCAR3 cells assessed as cell growth at 1 uM after 48 hrs by SRB assay; settings: OVCAR-3, 48 h, read-out: Activity
NCI-H322M [13] = experiment: Growth inhibition of human NCI-H322M cells assessed as cell growth at 100 uM after 48 hrs by SRB assay; settings: read-out: Activity
HOP-62 [14] = experiment: Growth inhibition of human HOP62 cells assessed as cell growth at 100 uM after 48 hrs by SRB assay; settings: HOP-62, 48 h, read-out: Activity
HCT-15 = experiment: Growth inhibition of human HCT15 cells assessed as cell growth at 10 uM after 48 hrs by SRB assay; settings: HCT-15, 48 h, read-out: Activity
KM12 = experiment: Growth inhibition of human KM12 cells assessed as cell growth at 1 mM after 48 hrs by SRB assay; settings: KM12, 48 h, read-out: Activity
NCI-H460 = experiment: Growth inhibition of human NCI-H460 cells assessed as cell growth at 10 uM after 48 hrs by SRB assay; settings: NCI-H460, 48 h, read-out: Activity
TK-10 [15] = experiment: Growth inhibition of human TK10 cells assessed as cell growth at 1 mM after 48 hrs by SRB assay; settings: TK-10, 48 h, read-out: Activity
SK-OV-3 = experiment: Growth inhibition of human SKOV3 cells assessed as cell growth at 1 uM after 48 hrs by SRB assay; settings: SK-OV-3, 48 h, read-out: Activity
LOX IMVI = experiment: Growth inhibition of human LOXIMVI cells assessed as cell growth at 1 uM after 48 hrs by SRB assay; settings: read-out: Activity
TK-10 [16] = experiment: Growth inhibition of human TK10 cells assessed as cell growth at 0.1 uM after 48 hrs by SRB assay; settings: TK-10, 48 h, read-out: Activity
HOP-92 = experiment: Growth inhibition of human HOP92 cells assessed as cell growth at 1 uM after 48 hrs by SRB assay; settings: HOP-92, 48 h, read-out: Activity
U-251 = experiment: Growth inhibition of human U251 cells assessed as cell growth at 1 mM after 48 hrs by SRB assay; settings: U-251, 48 h, read-out: Activity
[17] = read-out: LC50 (the source's name)
[18] = read-out: pLC50 (the source's name) (converted)

CCOC(=O)C[C@H]1[C@@H](O[Si](C)(C)C(C)(C)C)[C@H](n2cnc3c(NC(=O)Nc4ccccc4)ncnc32)O[C@@H]1CNC(=O)NC
growth at 0.1 µM (IGROV-1): 94% | growth at 10 µM (OVCAR-3 [1]): 116% | GI50 (SF-539; read-out: GI50): 5.19 µM | CC50 (SF-539; [17]): > 100 µM | TGI (SF-539; read-out: TGI): > 100 µM | GI50 (SF-539; read-out: pGI50 (converted)): 5.25 µM | CC50 (SF-539; [18]): > 100 µM | TGI (SF-539; read-out: pTGI (converted)): > 100 µM | growth at 100 µM (NCI-H226): 71% | growth at 0.1 µM (HCT-116): 93% | growth at 10 µM (SF-268 [2]): 93% | GI50 (OVCAR-5 [3]; read-out: GI50): 31.1 µM | CC50 (OVCAR-5 [3]; [17]): > 100 µM | TGI (OVCAR-5 [3]; read-out: TGI): > 100 µM | GI50 (OVCAR-5 [3]; read-out: pGI50 (converted)): 30.9 µM | CC50 (OVCAR-5 [3]; [18]): > 100 µM | TGI (OVCAR-5 [3]; read-out: pTGI (converted)): > 100 µM | GI50 (OVCAR-4; read-out: GI50): 12.3 µM | CC50 (OVCAR-4; [17]): > 100 µM | TGI (OVCAR-4; read-out: TGI): > 100 µM | GI50 (OVCAR-4; read-out: pGI50 (converted)): 12.3 µM | CC50 (OVCAR-4; [18]): > 100 µM | TGI (OVCAR-4; read-out: pTGI): > 100 µM | GI50 (HT-29; read-out: GI50): 4.2 µM | CC50 (HT-29; [17]): > 100 µM | TGI (HT-29; read-out: TGI): > 100 µM | GI50 (HT-29; read-out: pGI50 (converted)): 4.17 µM | CC50 (HT-29; [18]): > 100 µM | TGI (HT-29; read-out: pTGI (converted)): > 100 µM | growth at 100 µM (NCI-H522 [4]): 32% | growth at 10 µM (UO-31): 82% | growth at 1000 µM (HOP-62 [5]): -65% | growth at 1 µM (OVCAR-5 [6]): 103% | growth at 0.1 µM (NCI-H322M [7]): 105% | growth at 1 µM (Malme-3M): 95% | growth at 1 µM (SF-268 [8]): 103% | growth at 10 µM (MDA-MB-231): 94% | growth at 1000 µM (T47D): 13% | growth at 100 µM (ACHN): 47% | growth at 0.1 µM (SF-268 [9]): 102% | growth at 100 µM [10]: -27% | growth at 0.1 µM (M14): 90% | growth at 1000 µM (NCI-H522 [11]): -2% | growth at 10 µM (CAKI-1): 99% | growth at 1 µM (OVCAR-3 [12]): 115% | growth at 100 µM (NCI-H322M [13]): 89% | growth at 100 µM (HOP-62 [14]): 48% | growth at 10 µM (HCT-15): 94% | growth at 1000 µM (KM12): -28% | growth at 10 µM (NCI-H460): 101% | growth at 1000 µM (TK-10 [15]): -38% | growth at 1 µM (SK-OV-3): 96% | growth at 1 µM (LOX IMVI): 97% | growth at 0.1 µM (TK-10 [16]): 98% | growth at 1 µM (HOP-92): -1% | growth at 1000 µM (U-251): -61%

CNC(=O)NC[C@H]1O[C@@H](n2cnc3c(NC(=O)Nc4ccccc4)ncnc32)[C@H](O[Si](C)(C)C(C)(C)C)[C@@H]1CC(=O)N(C)OC
growth at 0.1 µM (IGROV-1): 89% | growth at 10 µM (OVCAR-3 [1]): 100% | GI50 (SF-539; read-out: GI50): 22.3 µM | CC50 (SF-539; [17]): > 100 µM | TGI (SF-539; read-out: TGI): > 100 µM | GI50 (SF-539; read-out: pGI50 (converted)): 22.4 µM | CC50 (SF-539; [18]): > 100 µM | TGI (SF-539; read-out: pTGI (converted)): > 100 µM | growth at 100 µM (NCI-H226): 66% | growth at 0.1 µM (HCT-116): 93% | growth at 10 µM (SF-268 [2]): 91% | GI50 (OVCAR-5 [3]; read-out: GI50): 38.2 µM | CC50 (OVCAR-5 [3]; [17]): > 100 µM | TGI (OVCAR-5 [3]; read-out: TGI): > 100 µM | GI50 (OVCAR-5 [3]; read-out: pGI50 (converted)): 38 µM | CC50 (OVCAR-5 [3]; [18]): > 100 µM | TGI (OVCAR-5 [3]; read-out: pTGI (converted)): > 100 µM | GI50 (OVCAR-4; read-out: GI50): 53 µM | CC50 (OVCAR-4; [17]): > 100 µM | TGI (OVCAR-4; read-out: TGI): > 100 µM | GI50 (OVCAR-4; read-out: pGI50 (converted)): 52.5 µM | CC50 (OVCAR-4; [18]): > 100 µM | TGI (OVCAR-4; read-out: pTGI): > 100 µM | GI50 (HT-29; read-out: GI50): 5.37 µM | CC50 (HT-29; [17]): > 100 µM | TGI (HT-29; read-out: TGI): > 100 µM | GI50 (HT-29; read-out: pGI50 (converted)): 5.37 µM | CC50 (HT-29; [18]): > 100 µM | TGI (HT-29; read-out: pTGI (converted)): > 100 µM | growth at 100 µM (NCI-H522 [4]): 51% | growth at 10 µM (UO-31): 82% | growth at 1000 µM (HOP-62 [5]): 28% | growth at 1 µM (OVCAR-5 [6]): 98% | growth at 0.1 µM (NCI-H322M [7]): 97% | growth at 1 µM (Malme-3M): 88% | growth at 1 µM (SF-268 [8]): 105% | growth at 10 µM (MDA-MB-231): 94% | growth at 1000 µM (T47D): 17% | growth at 100 µM (ACHN): 55% | growth at 0.1 µM (SF-268 [9]): 98% | growth at 100 µM [10]: -25% | growth at 0.1 µM (M14): 98% | growth at 1000 µM (NCI-H522 [11]): 31% | growth at 10 µM (CAKI-1): 76% | growth at 1 µM (OVCAR-3 [12]): 107% | growth at 100 µM (NCI-H322M [13]): 90% | growth at 100 µM (HOP-62 [14]): 64% | growth at 10 µM (HCT-15): 93% | growth at 1000 µM (KM12): 30% | growth at 10 µM (NCI-H460): 90% | growth at 1000 µM (TK-10 [15]): 17% | growth at 1 µM (SK-OV-3): 97% | growth at 1 µM (LOX IMVI): 96% | growth at 0.1 µM (TK-10 [16]): 99% | growth at 1 µM (HOP-92): 93% | growth at 1000 µM (U-251): 25%
